# Results reported in US11091463B2, “Amide-substituted pyridinyltriazole derivatives and uses thereof” (BAYER PHARMA AKTIENGESELLSCHAFT, priority 2016, dated 2021).
# Target: T1, human V1a receptor (Homo sapiens, UniProt P37288)
# T1 construct: expressed in transfected cells; host or cells: CHO K1 (ATCC), also stably transfected with a modified aequorin
# Assay: Cellular in vitro assay for vasopressin receptor activity, V1a receptor cell line (photoprotein luminescence)
# Assay type: cell-based
# Conditions: Table 1A; compounds of the invention; selectivity ratio
# Experimental: B-1. Cellular In Vitro Assay for Determining Vasopressin Receptor Activity
# The identification of agonists and antagonists of the V1a and V2 vasopressin receptors from humans, rats and dogs as well as the quantification of the activity of the compounds of the invention is carried out using recombinant cell lines. These cell lines originally derive from a hamster's ovary epithelial cell (Chinese Hamster Ovary, CHO K1, ATCC: American Type Culture Collection, Manassas, Va. 20108, USA). The test cell lines constitutively express the human, rat or dog V1a or V2 receptors. In case of the Gαq-coupled V1a receptors, cells are also stably transfected with a modified form of the calcium-sensitive photoproteins aequorin (human and rat V1a) or obelin (dog V1a), which, after reconstitution with the cofactor coelenterazine, emit light when there are increases in free calcium concentrations [Rizzuto R, Simpson A W, Brini M, Pozzan T, Nature, 358, 325-327 (1992); Illarionov B A, Bondar V S, Illarionova V A, Vysotski E S, Gene, 153 (2), 273-274 (1995)]. The resulting vasopressin receptor cells react to stimulation of the recombinantly expressed V1a receptors by intracellular release of calcium ions, which can be quantified by the resulting photoprotein luminescence. The Gs-coupled V2 receptors are stably transfected into cell lines expressing the gene for firefly luciferase under control of a CRE-responsible promoter. Activation of V2 receptors induces the activation of the CRE-responsive promoter via cAMP increase, thereby inducing the expression of firefly luciferase. The light emitted by photoproteins of V1a cell lines as well as the light emitted by firefly luciferase of V2 cell lines corresponds to the activation or inhibition of the respective vasopressin receptor. The bioluminescence of the cell lines is detected using a suitable luminometer [Milligan G, Marshall F, Rees S, Trends in Pharmacological Sciences, 17, 235-237 (1996)].
# Vasopressin V1a Receptor Cell Lines:
# On the day before the assay, the cells are plated out in culture medium (DMEM/F12, 2% FCS, 2 mM glutamine, 10 mM HEPES, 5 μg/ml coelenterazine) in 384-well microtiter plates and kept in a cell incubator (96% humidity, 5% v/v CO2, 37° C.). On the day of the assay, test compounds in various concentrations are placed for 10 minutes in the wells of the microtiter plate before the agonist [Arg^8]-vasopressin at EC50 concentration is added. The resulting light signal is measured immediately in a luminometer.
# Table 1A below lists individual IC50 values for the compounds of the invention (including racemic mixtures as well as separated enantiomers) that were obtained from cell lines transfected with the human V1a or V2 receptor: […]
# T1 sequence (P37288 whole entry): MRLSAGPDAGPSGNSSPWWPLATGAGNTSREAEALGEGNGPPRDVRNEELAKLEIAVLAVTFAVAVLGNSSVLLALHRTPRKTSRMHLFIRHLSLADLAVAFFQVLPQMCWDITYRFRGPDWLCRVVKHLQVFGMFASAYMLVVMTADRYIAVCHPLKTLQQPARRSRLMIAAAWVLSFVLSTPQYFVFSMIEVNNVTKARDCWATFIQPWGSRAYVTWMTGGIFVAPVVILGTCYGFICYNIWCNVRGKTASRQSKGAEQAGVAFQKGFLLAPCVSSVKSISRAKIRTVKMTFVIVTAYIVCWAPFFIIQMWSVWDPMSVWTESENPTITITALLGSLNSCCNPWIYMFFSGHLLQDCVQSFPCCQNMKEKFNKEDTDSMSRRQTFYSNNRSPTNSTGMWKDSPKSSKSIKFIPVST
row,Compound,ratio IC50 hV2/hV1a
1,"NC(=O)c1nc(Cn2nc(-c3ccc(Cl)cc3)n(C[C@@H](O)C(F)(F)F)c2=O)nn1-c1ncccc1Cl [Example 10, 3-({3-(4-Chlorophenyl)-5-oxo-4-[(2R)-3,3,3-trifluoro-2-hydroxypropyl]-4,5-dihydro-1H-1,2,4-triazol-1-yl}methyl)-1-(3-chloropyridin-2-yl)-1H-1,2,4-triazole-5-carboxamide]",116.2
2,"NC(=O)c1nc(Cn2nc(-c3ccc(Cl)cc3)n(C[C@H](O)C(F)(F)F)c2=O)nn1-c1ncccc1Cl [Example 1, 3-({3-(4-Chlorophenyl)-5-oxo-4-[(2S)-3,3,3-trifluoro-2-hydroxypropyl]-4,5-dihydro-1H-1,2,4-triazol-1-yl}methyl)-1-(3-chloropyridin-2-yl)-1H-1,2,4-triazole-5-carboxamide]",38.2
3,"NC(=O)c1cccnc1-n1nc(Cn2nc(-c3ccc(Cl)cc3)n(C[C@H](O)C(F)(F)F)c2=O)nc1C(N)=O [Example 9, 2-[5-carbamoyl-3-({3-(4-chlorophenyl)-5-oxo-4-[(2S)-3,3,3-trifluoro-2-hydroxypropyl]-4,5-dihydro-1H-1,2,4-triazol-1-yl}methyl)-1H-1,2,4-triazol-1-yl]nicotinamide]",30.0
4,"NC(=O)c1nc(Cn2nc(-c3ccc(Cl)cc3)n(CC(=O)C(F)(F)F)c2=O)nn1-c1cnccc1Cl [Example 16, 3-{[3-(4-Chlorophenyl)-5-oxo-4-(3,3,3-trifluoro-2-oxopropyl)-4,5-dihydro-1H-1,2,4-triazol-1-yl]methyl}-1-(4-chloropyridin-3-yl)-1H-1,2,4-triazole-5-carboxamide (ketone form) or 3-{[3-(4-Chlorophenyl)-5-oxo-4-(3,3,3-trifluoro-2,2-dihydroxypropyl)-4,5-dihydro-1H-1,2,4-triazol-1-yl]-methyl}-1-(4-chloropyridin-3-yl)-1H-1,2,4-triazole-5-carboxamide (hydrate form)]",53.6
5,"CCOC(=O)c1cccnc1-n1nc(Cn2nc(-c3ccc(Cl)cc3)n(C[C@H](O)C(F)(F)F)c2=O)nc1C(N)=O [Example 5, Ethyl 2-[5-carbamoyl-3-({3-(4-chlorophenyl)-5-oxo-4-[(2S)-3,3,3-trifluoro-2-hydroxypropyl]-4,5-dihydro-1H-1,2,4-triazol-1-yl}methyl)-1H-1,2,4-triazol-1-yl]nicotinate]",85.9
6,"NC(=O)c1nc(Cn2nc(-c3ccc(Cl)cc3)n(C[C@@H](O)C(F)(F)F)c2=O)nn1-c1cnccc1Cl [Example 12, 3-({3-(4-Chlorophenyl)-5-oxo-4-[(2R)-3,3,3-trifluoro-2-hydroxypropyl]-4,5-dihydro-1H-1,2,4-triazol-1-yl}methyl)-1-(4-chloropyridin-3-yl)-1H-1,2,4-triazole-5-carboxamide]",249.3
7,"NC(=O)c1nc(Cn2nc(-c3ccc(Cl)cc3)n(C[C@H](O)C(F)(F)F)c2=O)nn1-c1ncccc1OC(F)(F)F [Example 3, 3-({3-(4-Chlorophenyl)-5-oxo-4-[(2S)-3,3,3-trifluoro-2-hydroxypropyl]-4,5-dihydro-1H-1,2,4-triazol-1-yl}methyl)-1-[3-(trifluoromethoxy)pyridin-2-yl]-1H-1,2,4-triazole-5-carboxamide]",54.7
8,"NC(=O)c1nc(Cn2nc(-c3ccc(Cl)cc3)n(C[C@H](O)C(F)(F)F)c2=O)nn1-c1ncccc1Br [Example 4, 1-(3-Bromopyridin-2-yl)-3-({3-(4-chlorophenyl)-5-oxo-4-[(2S)-3,3,3-trifluoro-2-hydroxypropyl]-4,5-dihydro-1H-1,2,4-triazol-1-yl}methyl)-1H-1,2,4-triazole-5-carboxamide]",72.6
9,"NC(=O)c1nc(Cn2nc(-c3ccc(Cl)cc3)n(CC(=O)C(F)(F)F)c2=O)nn1-c1ncccc1Cl [Example 14, 3-{[3-(4-Chlorophenyl)-5-oxo-4-(3,3,3-trifluoro-2-oxopropyl)-4,5-dihydro-1H-1,2,4-triazol-1-yl]methyl}-1-(3-chloropyridin-2-yl)-1H-1,2,4-triazole-5-carboxamide (ketone form) or 3-{[3-(4-chlorophenyl)-5-oxo-4-(3,3,3-trifluoro-2,2-dihydroxypropyl)-4,5-dihydro-1H-1,2,4-triazol-1-yl]methyl}-1-[2-(trifluoromethyl)phenyl]-1H-1,2,4-triazole-5-carboxamide (hydrate form)]",20.0
10,"NC(=O)c1nc(Cn2nc(-c3ccc(Cl)cc3)n(C[C@@H](O)C(F)(F)F)c2=O)nn1-c1ncccc1C(F)(F)F [Example 11, 3-({3-(4-Chlorophenyl)-5-oxo-4-[(2R)-3,3,3-trifluoro-2-hydroxypropyl]-4,5-dihydro-1H-1,2,4-triazol-1-yl}methyl)-1-[3-(trifluoromethyl)pyridin-2-yl]-1H-1,2,4-triazole-5-carboxamide]",196.8
11,"CCOC(=O)c1ccncc1-n1nc(Cn2nc(-c3ccc(Cl)cc3)n(C[C@H](O)C(F)(F)F)c2=O)nc1C(N)=O [Example 8, Ethyl 3-[5-carbamoyl-3-({3-(4-chlorophenyl)-5-oxo-4-[(2S)-3,3,3-trifluoro-2-hydroxypropyl]-4,5-dihydro-1H-1,2,4-triazol-1-yl}methyl)-1H-1,2,4-triazol-1-yl]isonicotinate]",35.0
12,"NC(=O)c1nc(Cn2nc(-c3ccc(Cl)cc3)n(C[C@H](O)C(F)(F)F)c2=O)nn1-c1ncccc1C(F)(F)F [Example 2, 3-({3-(4-Chlorophenyl)-5-oxo-4-[(2S)-3,3,3-trifluoro-2-hydroxypropyl]-4,5-dihydro-1H-1,2,4-triazol-1-yl}methyl)-1-[3-(trifluoromethyl)pyridin-2-yl]-1H-1,2,4-triazole-5-carboxamide]",141.0
13,"NC(=O)c1nc(Cn2nc(-c3ccc(Cl)cc3)n(C[C@H](O)C(F)(F)F)c2=O)nn1-c1cnccc1C(F)(F)F [Example 7, 3-({3-(4-Chlorophenyl)-5-oxo-4-[(2S)-3,3,3-trifluoro-2-hydroxypropyl]-4,5-dihydro-1H-1,2,4-triazol-1-yl}methyl)-1-[4-(trifluoromethyl)pyridin-3-yl]-1H-1,2,4-triazole-5-carboxamide]",117.3
14,"NC(=O)c1nc(Cn2nc(-c3ccc(Cl)cc3)n(C[C@H](O)C(F)(F)F)c2=O)nn1-c1cnccc1Cl [Example 6, 3-({3-(4-Chlorophenyl)-5-oxo-4-[(2S)-3,3,3-trifluoro-2-hydroxypropyl]-4,5-dihydro-1H-1,2,4-triazol-1-yl}methyl)-1-(4-chloropyridin-3-yl)-1H-1,2,4-triazole-5-carboxamide]",43.9
15,"NC(=O)c1nc(Cn2nc(-c3ccc(Cl)cc3)n(C[C@@H](O)C(F)(F)F)c2=O)nn1-c1cnccc1C(F)(F)F [Example 13, 3-({3-(4-Chlorophenyl)-5-oxo-4-[(2R)-3,3,3-trifluoro-2-hydroxypropyl]-4,5-dihydro-1H-1,2,4-triazol-1-yl}methyl)-1-[4-(trifluoromethyl)pyridin-3-yl]-1H-1,2,4-triazole-5-carboxamide]",431.3
16,"NC(=O)c1nc(Cn2nc(-c3ccc(Cl)cc3)n(CC(=O)C(F)(F)F)c2=O)nn1-c1ncccc1Br [Example 15, 1-(3-Bromopyridin-2-yl)-3-{[3-(4-chlorophenyl)-5-oxo-4-(3,3,3-trifluoro-2-oxopropyl)-4,5-dihydro-1H-1,2,4-triazol-1-yl]methyl}-1H-1,2,4-triazole-5-carboxamide (ketone form) or 1-(3-Bromopyridin-2-yl)-3-{[3-(4-chlorophenyl)-5-oxo-4-(3,3,3-trifluoro-2,2-dihydroxypropyl)-4,5-dihydro-1H-1,2,4-triazol-1-yl]methyl}-1H-1,2,4-triazole-5-carboxamide (hydrate form)]",47.2
